Reference: ChEMBL document CHEMBL1629433, “Synthesis and pharmacological evaluation of the stereoisomers of 3-carba cyclic-phosphatidic acid” (Bioorg Med Chem Lett, 2010)
Calls of active or inactive are those of the source. No cut-off for these calls is given here.

What was measured:
B16-F10 = assay: Antitumor activity against mouse B16-F10 cells grafted in C57/BL6 mouse assessed as inhibition of lung metastases of cancer cells at 0.5 mg/kg/day, ip administered for 10 days and measured on day 21; format: functional, organism-based
Autotaxin [1] = target: T1, Autotaxin (Homo sapiens, UniProt Q13822); assay: Inhibition of recombinant ATX mediated hydrolysis of FS-3
Autotaxin [2] = target: T1, Autotaxin; assay: Inhibition of recombinant ATX mediated hydrolysis of FS-3 at 0.5 to 2 times IC50
[3] = target: Lysophosphatidic acid receptor 5 (Homo sapiens) (UniProt Q9H1C0); assay: Agonist activity at LPA5 receptor expressed in rat B103 cells assessed as calcium mobilization at >1 uM; format: functional, cell-based
Lysophosphatidic acid receptor 5 (Homo sapiens), sequence (Q9H1C0 whole entry): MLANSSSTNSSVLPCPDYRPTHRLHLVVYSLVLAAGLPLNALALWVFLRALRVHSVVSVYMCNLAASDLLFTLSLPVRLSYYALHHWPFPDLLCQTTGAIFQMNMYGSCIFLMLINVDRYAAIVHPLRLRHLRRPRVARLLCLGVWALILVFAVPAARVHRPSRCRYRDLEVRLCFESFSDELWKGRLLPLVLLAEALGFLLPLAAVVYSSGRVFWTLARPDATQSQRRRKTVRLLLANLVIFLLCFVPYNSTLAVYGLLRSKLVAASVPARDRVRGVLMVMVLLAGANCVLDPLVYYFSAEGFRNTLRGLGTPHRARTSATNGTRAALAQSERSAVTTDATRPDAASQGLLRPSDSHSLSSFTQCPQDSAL

Ki (Autotaxin [1]) [nM]	inhibition (Autotaxin [2])	Activity [3]	SMILES	inhibition (B16-F10)
			CCCCCCCCCCCCCCCCCC(=O)OCC1CCP(=O)(O)O1 (racemic)	Active
800	Active	Active	CCCCCCCCCCCCCCCCCC(=O)OC[C@H]1CCP(=O)(O)O1	Active
1600	Active	Active	CCCCCCCCCCCCCCCCCC(=O)OC[C@@H]1CCP(=O)(O)O1	Active
